For seven compounds, TGI results are on record in PubChem BioAssay (NCI).

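Five concentrations, 48 hours, 96-well plates. TGI denotes the concentration required for complete inhibition of growth.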 Bounds are passed on as bounds.

A word on the TGI: it is the concentration at which net growth stops. Higher therefore signals lower sensitivity of the cells.

Among the test systems are 786-0 renal; MDA-MB-435; RXF 393 renal; OVCAR-3 ovarian; NCI/ADR-RES ovarian; ACHN renal; NCI-H226 lung; OVCAR-5 ovarian; NCI-H460 lung; SK-OV-3 ovarian; MOLT-4 leukemia; HS 578T breast; HL-60(TB) leukemia; SF-268 CNS; SW-620 colon; NCI-H522 lung; MALME-3M melanoma; SN12C renal; KM12 colon.
Assay in all cases: DTP human tumour cell line panel, 48 h

With `Cc1cccc2oc3c(c(=O)c12)CC(O)C(C)(C)O3` (stereo not drawn), the TGI in the assay on 786-0 renal, with MDA-MB-435, in the assay with RXF 393 renal, in the assay with OVCAR-3 ovarian, with NCI/ADR-RES ovarian and in the assay on ACHN renal was > 100 µM in each case. Moreover, the total growth inhibition concentration (TGI) in the assay with NCI-H226 lung was > 100 µM; with OVCAR-5 ovarian, > 100 µM; in the assay with NCI-H460 lung, > 100 µM; in the assay on SK-OV-3 ovarian, > 100 µM; with MOLT-4 leukemia, 83.2 µM; with HS 578T breast, > 100 µM. Besides, the concentration for total growth inhibition (TGI) is 48.3 µM in the assay with HL-60(TB) leukemia; > 100 µM with SF-268 CNS; > 100 µM in the assay with SW-620 colon; 87.5 µM in the assay with NCI-H522 lung; > 100 µM with MALME-3M melanoma; > 100 µM with SN12C renal. Also, the TGI in the assay on KM12 colon is > 100 µM.

Turning to `O=c1[nH]nc(-c2ccccc2)n1/N=C/c1cccc([N+](=O)[O-])c1`, the TGI in the assay on 786-0 renal, in the assay with MDA-MB-435, in the assay on RXF 393 renal, in the assay on OVCAR-3 ovarian, with NCI/ADR-RES ovarian and in the assay on ACHN renal was > 100 µM in each case. Moreover, the TGI in the assay on NCI-H226 lung, in the assay on OVCAR-5 ovarian, in the assay with NCI-H460 lung, with SK-OV-3 ovarian, in the assay on MOLT-4 leukemia and in the assay on HS 578T breast was > 100 µM throughout. Moreover, the TGI in the assay with HL-60(TB) leukemia, in the assay on SF-268 CNS, in the assay with SW-620 colon, with NCI-H522 lung, with MALME-3M melanoma and in the assay with SN12C renal was > 100 µM each time. In the assay with KM12 colon, the total growth inhibition concentration (TGI) was > 100 µM.

Regarding `O=C(/C=C1\Sc2ccccc2N=C1CC(=O)c1ccccc1)c1ccccc1`, the total growth inhibition concentration (TGI) is 21.7 µM in the assay with 786-0 renal; 29.6 µM in the assay on MDA-MB-435; > 100 µM with RXF 393 renal; 29.5 µM with OVCAR-3 ovarian; 18.7 µM with NCI/ADR-RES ovarian; 72.5 µM in the assay with ACHN renal. For the same compound, the total growth inhibition concentration (TGI) in the assay on NCI-H226 lung was 35.5 µM; in the assay with OVCAR-5 ovarian it was 61.4 µM; with NCI-H460 lung, 27.5 µM; in the assay with SK-OV-3 ovarian, 72 µM; with MOLT-4 leukemia, 24.7 µM; in the assay on HS 578T breast it was > 100 µM. For the same compound, the concentration for total growth inhibition (TGI) in the assay on HL-60(TB) leukemia came out at 22.3 µM; in the assay with SF-268 CNS it was 45.8 µM; with SW-620 colon, 22.5 µM; in the assay on NCI-H522 lung it was 55.4 µM; in the assay with MALME-3M melanoma, 23 µM; in the assay on SN12C renal, 39.4 µM. In the assay with KM12 colon, the TGI is 24.5 µM.

For the compound `C[C@H]1C2Cc3cc(O)ccc3[C@@]1(C)CCN2CCc1ccc(N)cc1`, the concentration for total growth inhibition (TGI) is 30.7 µM with 786-0 renal; 32.5 µM with MDA-MB-435; > 100 µM in the assay with RXF 393 renal; 47 µM in the assay on OVCAR-3 ovarian; 63.2 µM with NCI/ADR-RES ovarian; > 100 µM in the assay with ACHN renal. The total growth inhibition concentration (TGI) with NCI-H226 lung, in the assay with OVCAR-5 ovarian, with NCI-H460 lung, in the assay on SK-OV-3 ovarian, in the assay with MOLT-4 leukemia and in the assay with HS 578T breast was > 100 µM each time. Moreover, the TGI was > 100 µM with HL-60(TB) leukemia; 52.6 µM in the assay on SF-268 CNS; 36 µM in the assay on SW-620 colon; 36.2 µM with NCI-H522 lung; 34.8 µM with MALME-3M melanoma; > 100 µM in the assay on SN12C renal. This compound also showed a total growth inhibition concentration (TGI) in the assay with KM12 colon of 34.3 µM.

Regarding `Clc1ccc(-c2cc(-c3cc4cc(Br)ccc4nc3Cl)on2)cc1`, the TGI was > 50 µM in the assay with 786-0 renal; 32.1 µM in the assay on MDA-MB-435; 43.9 µM in the assay with RXF 393 renal; 30.7 µM in the assay with OVCAR-3 ovarian; 37.9 µM in the assay on NCI/ADR-RES ovarian; > 50 µM in the assay on ACHN renal. Also, the TGI in the assay with NCI-H226 lung is 27.4 µM; in the assay with OVCAR-5 ovarian, > 50 µM; in the assay with NCI-H460 lung it was 22.6 µM; with SK-OV-3 ovarian, > 50 µM; with MOLT-4 leukemia it was 47.3 µM; with HS 578T breast, > 50 µM. In addition, the TGI in the assay on HL-60(TB) leukemia was 4.89 µM; with SF-268 CNS, 28.6 µM; with SW-620 colon, 27.5 µM; in the assay on NCI-H522 lung it was 21.8 µM; in the assay with MALME-3M melanoma it was > 50 µM; with SN12C renal, > 50 µM. For the same compound, in the assay with KM12 colon, the TGI is > 50 µM.

Turning to `O=Cc1ccc(OC[C@H]2COC(=O)N2)cc1`, the TGI with 786-0 renal, in the assay with MDA-MB-435, with RXF 393 renal, with OVCAR-3 ovarian, with NCI/ADR-RES ovarian and in the assay on ACHN renal was > 100 µM throughout. Also, the total growth inhibition concentration (TGI) in the assay with NCI-H226 lung, with OVCAR-5 ovarian, with NCI-H460 lung, in the assay on SK-OV-3 ovarian, in the assay with MOLT-4 leukemia and with HS 578T breast was > 100 µM in each case. Further, the TGI in the assay with HL-60(TB) leukemia, with SF-268 CNS, in the assay on SW-620 colon, with NCI-H522 lung, with MALME-3M melanoma and in the assay with SN12C renal was > 100 µM throughout. Moreover, the concentration for total growth inhibition (TGI) with KM12 colon is > 100 µM.

In the case of `CCOC(=O)c1sc2c(c1OC(=O)c1cc(OC)c(OC)c(OC)c1)c(=O)n(-c1ccccc1)c(=S)n2-c1ccccc1`, the concentration for total growth inhibition (TGI) in the assay with 786-0 renal, in the assay on MDA-MB-435, in the assay on RXF 393 renal, with OVCAR-3 ovarian, in the assay on NCI/ADR-RES ovarian and in the assay on ACHN renal was > 100 µM each time. Also, the concentration for total growth inhibition (TGI) in the assay with NCI-H226 lung, in the assay on OVCAR-5 ovarian, in the assay with NCI-H460 lung, in the assay on SK-OV-3 ovarian, with MOLT-4 leukemia and in the assay on HS 578T breast was > 100 µM throughout. The TGI is > 100 µM in the assay with HL-60(TB) leukemia; > 100 µM in the assay on SF-268 CNS; > 100 µM in the assay with SW-620 colon; 63.1 µM in the assay on NCI-H522 lung; > 100 µM in the assay on MALME-3M melanoma; > 100 µM in the assay on SN12C renal. Further, the TGI with KM12 colon was > 100 µM.
